Where only a bound is given, the exact number is not on record here.

Drawing on patent US20250002473A1, “QUINOXALINE DERIVED SULFONAMIDES WITH EGFR DEGRADATION ACTIVITIES AND THEIR USES THEREOF” (Accutar Biotechnology Inc., priority 2023, published 2025), this text covers GI50 and DC50 for nine molecules.

Common to all, as to assay type: cell-based
One test concerns BaF3_ASV. In words: Cell growth inhibition assay (CellTiter-Glo), BaF3_ASV. The conditions noted are these: 72 h; Table 6; BaF3_ASV cells, three days, CellTiter-Glo; read-out: BaF3_ASV GI50. How it is done: (§1) Cells were seeded in a 96-well plate (Corning 3610) with 90 μL of culture medium per well, and plates were incubated at 37° C. overnight. A 1,000× DMSO stock solution of the desired compound was prepared the following day. A compound dilution plate was prepared by diluting the stock solution 1:100 in the corresponding cell culture medium, 10 μL of the diluted compound solution was added to each 96-well plate well containing the seeded cells. […] The content of the wells was mixed by shaking continuously for 10 min, and luminescence was measured using Envision (PerkinElmer). The data were analyzed with GraphPad Prism 9 (see FIG. 50).
(§2) Table 6, Table 7, and Table 8 list the cell growth inhibition results, where Gls0 represents the compound concentration to cause 50% cell growth inhibition in comparison with DMSO.
(In general: Cellular ATP, detected with luciferase, serves as a proxy for viable cell number.)

Test [1] deals with BaF3_DTC (EGFR_Exon19del/T790M/C797S). The test is described as follows: EGFR degradation assay (western blot), BaF3_DTC cells. The conditions noted are these: BaF3_DTC cells (EGFR_Exon19del/T790M/C797S), compounds 24 h, western blot; read-out: BaF3_DTC DC50. How it is done: (§3) A431 (EGFR_WT), NCl-H2073 (EGFR_WT), NCl-H292 (EGFR_WT), BaF3_YVAM (Her2_A775insYVAM), BaF3_SVD (EGFR_D770insSVD), BaF3_ASV (EGFR_A776inASV), or BaF3_DTC (EGFR_Exon19del/T790M/C797S) cells were seeded in a 24-well plate at a density of 4×10^5 cells per well for EGFR WT cells and 8× cells per well for EGFR or Her2 mutant cells, and the plates were incubated overnight. The cells were treated with the desired compounds for 24 h. The culture medium was removed, and 100 μL of RIPA buffer (Beyotime, P0013B) containing 1% Protease Inhibitor Cocktail (Bimake, B14001), 1% Phosphatase Inhibitor Cocktail 2 (Sigma, P5726), and 1% Phosphatase Inhibitor Cocktail 3 (Sigma, P0044) were added to lyse the cells. Then, the cell lysates were transferred to 1.5 mL microcentrifuge tubes and centrifuged at 12,000 rpm and 4° C. for 30 min. The supernatants were transferred into new tubes, and the protein concentration was determined using the BCA protein quantification method. All samples were diluted to the same concentration using RIPA buffer, loading buffer was added, samples were denatured, and 15 μg of protein per lane was loaded onto a SurePAGE 4-20% Bis-Tris gel. Samples were separated via electrophoresis in MOPS running buffer at 180 V for 100 min. Then, proteins were transferred onto PVDF membranes using the MiniBlot™ Electrophoretic Transfer Cell Device (Beyotime, E6050). The membrane was blocked using block buffer (LI-COR 927-60001) to prevent non-specific binding. The membrane was incubated with primary antibodies (1:500 dilution, EGFR-CST4405, 1:2000 dilution, Tubulin-ABclonal #AC021) at 4° C. overnight. The membrane was washed three times with 1× TBST buffer for 15 min each. The membrane was incubated with secondary antibodies IRDye 680RD Goat anti-Rabbit IgG Secondary Antibody (1:2000 dilution, LI-COR 926-68071) and IRDye 800CW Goat anti-Mouse IgG Secondary Antibody (1:2000 dilution, LI-COR 926-32210). Finally, the membrane was washed again with 1× TBST buffer 3 times. Fluorescence was detected using the Odyssey CLx Imaging System, and the data were analyzed with Empiria Studio Software and GraphPad Prism 9. Table 4 and Table 5 list the degradation results, where the degradation potency is represented by DC50, the concentration of compounds to cause the degradation of 50% of the corresponding proteins. FIGS. 45-49 show western blots illustrating the EGFR degradative activity of exemplary Compound of the present disclosure and a comparator Compound A in different cell lines 24 h after administration. The Compound referred herein as Compound A is disclosed in WO 2022/171123 A1 (see, compound 133, page 46; published Aug. 18, 2022). WO 2022/171123 A1 discloses phosphine oxide derived molecules with EGFR degradation activity.
(In western blotting, separated proteins are transferred to a membrane and probed.)

The next test relates to A431. In words: Cell growth inhibition assay (CellTiter-Glo), A431. The conditions noted are these: Homo sapiens, A-431, 72 h, Table 6; A431 cells, three days, CellTiter-Glo; read-out: A431 GI50. How it is done: as §1, §2
A further test has as its system BaF3_DTC. The test is described as follows: Cell growth inhibition assay (CellTiter-Glo), BaF3_DTC. The conditions noted are these: 72 h; Table 6; BaF3_DTC cells, three days, CellTiter-Glo; read-out: BaF3_DTC GI50. How it is done:
as §1, §2

Test [2] deals with T1, BaF3_ASV (EGFR_A776inASV) (Homo sapiens, UniProt P00533, DUP767-769).
T1 construct: expressed in transfected cells; host or cells: Ba/F3 (engineered)
T1 sequence (P00533 with tags, fused parts or gaps DUP767-769): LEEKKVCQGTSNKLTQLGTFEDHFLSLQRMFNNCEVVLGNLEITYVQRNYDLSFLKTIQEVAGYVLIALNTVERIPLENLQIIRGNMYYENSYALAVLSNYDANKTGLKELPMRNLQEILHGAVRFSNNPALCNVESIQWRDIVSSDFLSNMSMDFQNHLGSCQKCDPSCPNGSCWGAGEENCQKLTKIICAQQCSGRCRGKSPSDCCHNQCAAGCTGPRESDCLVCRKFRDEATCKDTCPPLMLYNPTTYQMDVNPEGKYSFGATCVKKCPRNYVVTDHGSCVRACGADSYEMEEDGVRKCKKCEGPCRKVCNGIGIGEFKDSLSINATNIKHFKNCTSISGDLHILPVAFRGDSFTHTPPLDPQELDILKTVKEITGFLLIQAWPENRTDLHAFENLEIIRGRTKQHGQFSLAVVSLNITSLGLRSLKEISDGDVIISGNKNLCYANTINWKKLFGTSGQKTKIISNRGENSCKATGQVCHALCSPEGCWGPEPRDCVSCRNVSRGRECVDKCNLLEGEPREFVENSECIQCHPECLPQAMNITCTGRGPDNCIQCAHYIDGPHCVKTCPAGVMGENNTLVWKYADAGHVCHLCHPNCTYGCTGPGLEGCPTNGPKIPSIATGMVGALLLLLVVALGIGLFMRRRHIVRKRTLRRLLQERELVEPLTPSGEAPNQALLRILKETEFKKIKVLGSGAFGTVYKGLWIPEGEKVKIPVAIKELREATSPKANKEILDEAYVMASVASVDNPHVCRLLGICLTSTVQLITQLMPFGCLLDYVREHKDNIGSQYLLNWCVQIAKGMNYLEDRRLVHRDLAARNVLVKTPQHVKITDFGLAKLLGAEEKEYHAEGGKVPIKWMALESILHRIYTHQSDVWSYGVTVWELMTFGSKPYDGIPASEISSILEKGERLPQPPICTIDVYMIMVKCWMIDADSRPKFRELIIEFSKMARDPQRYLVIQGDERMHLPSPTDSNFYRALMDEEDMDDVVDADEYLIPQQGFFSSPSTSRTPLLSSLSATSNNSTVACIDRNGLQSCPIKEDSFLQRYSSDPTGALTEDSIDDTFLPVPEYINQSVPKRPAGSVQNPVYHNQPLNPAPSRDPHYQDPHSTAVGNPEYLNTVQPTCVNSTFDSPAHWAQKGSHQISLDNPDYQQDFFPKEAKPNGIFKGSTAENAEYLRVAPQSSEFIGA
The test is described as follows: EGFR degradation assay (western blot), BaF3_ASV cells. The conditions noted are these: BaF3_ASV cells, compounds 24 h, western blot; read-out: BaF3_ASV DC50. How it is done:
as §3

As a reminder, the GI50 is the concentration giving 50% growth inhibition. As a reminder, the DC50 is the concentration giving 50% degradation. For the molecule `CCc1cc(Nc2ncc(Br)c(Nc3ccc4nccnc4c3NS(C)(=O)=O)n2)c(OC)cc1N1CCC(N2CCC(N3CCN(c4ccc5c(c4)CN([C@H]4CCC(=O)NC4=O)C5=O)CC3)CC2)CC1` [Compound 36, (S)-N-(6-((5-bromo-2-((4-(4-(4-(2-(2,6-dioxopiperidin-3-yl)-1-oxoisoindolin-5-yl)piperazin-1-yl)-[1,4′-bipiperidin]-1′-yl)-5-ethyl-2-methoxyphenyl)amino)pyrimidin-4-yl)amino)quinoxalin-5-yl)methanesulfonamide], the GI50 with BaF3_ASV was 77.6 nM; in the test on A431 it was above 1000 nM; in the test on BaF3_DTC it was 9.12 nM. In addition, the values for the 50% degradation concentration (DC50) in test [1] and in test [2] were 1.27 nM and 102 nM, respectively.

Turning to `CCc1cc(Nc2ncc(Br)c(Nc3ccc4nccnc4c3NS(C)(=O)=O)n2)c(OC)cc1N1CCC2(CCN(CC3CCN(c4ccc5c(c4)CN(C4CCC(=O)NC4=O)C5=O)CC3)CC2)CC1` (stereo not drawn) [Compound 37, N-(6-((5-bromo-2-((4-(9-((1-(2-(2,6-dioxopiperidin-3-yl)-1-oxoisoindolin-5-yl)piperidin-4-yl)methyl)-3,9-diazaspiro[5.5]undecan-3-yl)-5-ethyl-2-methoxyphenyl)amino)pyrimidin-4-yl)amino)quinoxalin-5-yl)methanesulfonamide], the GI50 in the test on BaF3_ASV is 55.7 nM; with A431, 382 nM; in the test on BaF3_DTC it was 7.94 nM. Besides, the DC50 in test [1] was 8.6 nM; in test [2] it was 102 nM.

Take `CCc1cc(Nc2ncc(Br)c(Nc3ccc4nccnc4c3NS(C)(=O)=O)n2)c(OC)cc1N1CCC2(CC1)CN(CC1CCN(c3ccc4c(c3)CN(C3CCC(=O)NC3=O)C4=O)CC1)C2` (stereo not drawn) [Compound 40, N-(6-((5-bromo-2-((4-(2-((1-(2-(2,6-dioxopiperidin-3-yl)-1-oxoisoindolin-5-yl)piperidin-4-yl)methyl)-2,7-diazaspiro[3.5]nonan-7-yl)-5-ethyl-2-methoxyphenyl)amino)pyrimidin-4-yl)amino)quinoxalin-5-yl)methanesulfonamide]: the GI50 in the test with BaF3_ASV is 60.2 nM; in the test with A431, 399 nM; with BaF3_DTC it was 7.99 nM. Moreover, the DC50 in test [1] worked out at 20.8 nM; in test [2], 93.8 nM.

With `CCc1cc(Nc2ncc(Br)c(Nc3ccc4nccnc4c3NS(C)(=O)=O)n2)c(OC)cc1N1CCC(N2CCN(CC3(CN4CCN(c5ccc6c(c5)CN([C@H]5CCC(=O)NC5=O)C6=O)CC4)CC3)CC2)CC1` [Compound 42, (S)-N-(6-((5-bromo-2-((4-(4-(4-((1-((4-(2-(2,6-dioxopiperidin-3-yl)-1-oxoisoindolin-5-yl)piperazin-1-yl)methyl)cyclopropyl)methyl)piperazin-1-yl)piperidin-1-yl)-5-ethyl-2-methoxyphenyl)amino)pyrimidin-4-yl)amino)quinoxalin-5-yl)methanesulfonamide], the GI50 in the test with BaF3_ASV stood at 105 nM; in the test on A431, 606 nM; in the test with BaF3_DTC, 86 nM. For the same molecule, the 50% degradation concentration (DC50) in test [1] was above 100 nM; in test [2] it was above 1000 nM.

Regarding `CCc1cc(Nc2ncc(Br)c(Nc3ccc4nccnc4c3NS(C)(=O)=O)n2)c(OC)cc1N1CCN(CC2(CN3CCN(c4ccc5c(c4)CN([C@H]4CCC(=O)NC4=O)C5=O)CC3)CC2)CC1` [Compound 44, (S)-N-(6-((5-bromo-2-((4-(4-((1-((4-(2-(2,6-dioxopiperidin-3-yl)-1-oxoisoindolin-5-yl)piperazin-1-yl)methyl)cyclopropyl)methyl)piperazin-1-yl)-5-ethyl-2-methoxyphenyl)amino)pyrimidin-4-yl)amino)quinoxalin-5-yl)methanesulfonamide], the GI50 in the test with BaF3_ASV was 527 nM; with A431, above 1000 nM; in the test with BaF3_DTC, 18.4 nM. The half-maximal degradation concentration (DC50) in test [1] is 4.11 nM; in test [2] it was above 1000 nM.

Consider `CCc1cc(Nc2ncc(Br)c(Nc3ccc4nccnc4c3NS(C)(=O)=O)n2)c(OC)cc1N1CCC(N2CCN(C3CCC4(CC3)CN(c3ccc5c(c3)CN(C3CCC(=O)NC3=O)C5=O)C4)CC2)CC1` (stereo not drawn) [Compound 50, N-(6-((5-bromo-2-((4-(4-(4-(2-(2-(2,6-dioxopiperidin-3-yl)-1-oxoisoindolin-5-yl)-2-azaspiro[3.5]nonan-7-yl)piperazin-1-yl)piperidin-1-yl)-5-ethyl-2-methoxyphenyl)amino)pyrimidin-4-yl)amino)quinoxalin-5-yl)methanesulfonamide], for which the GI50 was 106 nM in the test on BaF3_ASV, above 1000 nM in the test on A431 and 13 nM in the test with BaF3_DTC. For the same molecule, the DC50 was 38.5 nM in test [1] and 95.2 nM in test [2].

As for `CCc1cc(Nc2ncc(Br)c(Nc3ccc4nccnc4c3NS(C)(=O)=O)n2)c(OC)cc1N1CCC(N2CCC3(CCN(c4ccc5c(c4)CN(C4CCC(=O)NC4=O)C5=O)CC3)CC2)CC1` (stereo not drawn) [Compound 53, N-(6-((5-bromo-2-((4-(4-(9-(2-(2,6-dioxopiperidin-3-yl)-1-oxoisoindolin-5-yl)-3,9-diazaspiro[5.5]undecan-3-yl)piperidin-1-yl)-5-ethyl-2-methoxyphenyl)amino)pyrimidin-4-yl)amino)quinoxalin-5-yl)methanesulfonamide], the GI50 was 330 nM in the test with BaF3_ASV, above 1000 nM in the test with A431 and 22.7 nM in the test with BaF3_DTC. Moreover, the DC50 in test [1] was 5.99 nM; in test [2], above 1000 nM.

On to `CCc1cc(Nc2ncc(Br)c(Nc3ccc4nccnc4c3NS(C)(=O)=O)n2)c(OC)cc1N1CCC(CN2CCC3(CC2)CCN(c2ccc4c(c2)CN(C2CCC(=O)NC2=O)C4=O)CC3)CC1` (stereo not drawn) [Compound 54, N-(6-((5-bromo-2-((4-(4-((9-(2-(2,6-dioxopiperidin-3-yl)-1-oxoisoindolin-5-yl)-3,9-diazaspiro[5.5]undecan-3-yl)methyl)piperidin-1-yl)-5-ethyl-2-methoxyphenyl)amino)pyrimidin-4-yl)amino)quinoxalin-5-yl)methanesulfonamide], for which the GI50 is 31 nM in the test with BaF3_ASV, above 1000 nM with A431 and 4.77 nM with BaF3_DTC. Further, the half-maximal degradation concentration (DC50) in test [1] was found to be 13.3 nM; in test [2] it was 33.5 nM.

Turning to `CCc1cc(Nc2ncc(Br)c(Nc3ccc4nccnc4c3NS(C)(=O)=O)n2)c(OC)cc1N1CCC(CN2CCC3(CC2)CN(c2ccc4c(c2)CN(C2CCC(=O)NC2=O)C4=O)C3)CC1` (stereo not drawn) [Compound 56, N-(6-((5-bromo-2-((4-(4-((2-(2-(2,6-dioxopiperidin-3-yl)-1~oxoisoindolin-5-yl)-2,7-diazaspiro[3.5]nonan-7-yl)methyl)piperidin-1-yl)-5-ethyl-2-methoxyphenyl)amino)pyrimidin-4-yl)amino)quinoxalin-5-yl)methanesulfonamide], the GI50 is 37.2 nM in the test with BaF3_ASV, above 1000 nM in the test with A431 and 6.08 nM with BaF3_DTC. Besides, the 50% degradation concentration (DC50) worked out at 9.32 nM in test [1] and 18 nM in test [2].
